The results in this text go back to patent US11993599B2, “Therapeutic compounds” (Genentech, Inc., priority 2021, dated 2024).

For assay [1], the target named is T1, BRG1 (Homo sapiens, UniProt P51532).
T1 construct: either BRM primary antibody (Cell signaling Cat #11966) or BRG primary antibody (Abcam, ab 110641); endogenous in cells; host or cells: SW1573
Description: Immunofluorescence assay for BRG1 degradation in SW1573 cells. The format is cell-based. The settings on record: 20 hours incubation; for DC50: immunofluorescence mean nuclear signal, read-out: BRG1 IF Degradation IC50; for Dmax: SW1573, 20 h, normalized to a known degrader control, read-out: BRG1 IF Degradation Sinf (%). On the procedure:
(§1) Example B-2: Immunofluorescence Assay for BRM and BRG1 Degraders
(§2) SW1573 cells were seeded at 3000 cells/well in 384 well plates. The next day, compounds were added using an Echo dispenser. After 20 hours of incubation with compound, cells were fixed with 4% formaldehyde then permeabilized with 0.2% Triton X-100 and blocked with 10% FCS. Fixed and permeabilized cells were treated overnight at 4° C. with either BRM primary antibody (Cell signaling Cat #11966) or BRG primary antibody (Abcam, ab 110641). Finally, cells were treated with fluorescently labeled secondary antibodies for 1 hr (Donkey anti-Rabbit IgG AF488, Life Technologies, A21206) and Hoechst nuclear stain (#H3569) was added for 30 minutes. Cells were washed with PBS in between each step and before imaging on an Opera Phenix microscope (Perkin Elmer). Harmony software (Perking Elmer) was used to quantify the mean nuclear signaling intensity of BRM or BRG signaling per cell in each well. Dose responses were determined from the concentration dependent response of mean nuclear signal intensity with data normalized to a known degrader control. Dose response curves were fit to a floating maximum to allow for calculation of the Dmax.
(§3) Note that, in Table 5, the “Compound Number” corresponds to that used in Table 1. In Table 5, for BRM and BRG1 IF degradation IC50 (μM): A indicates <0.010 μM, B indicates 0.010-0.10 μM, and C indicates >0.10 μM; and for BRM and BRG1 IF degradation Sinf % D indicates 0-−30%, E indicates −30%-−70%, F indicates −71%-−120% and ND indicates the value was not determined.

Assay [2] addresses BRM (Homo sapiens, UniProt P51531). Description: Immunofluorescence assay for BRM degradation in SW1573 cells. In kind it is cell-based. On the set-up: treated overnight at 4° C. with either BRM primary antibody (Cell signaling Cat #11966) or BRG primary antibody; endogenous in cells; host or cells: SW1573. To be noted: 20 hours incubation; for DC50: immunofluorescence mean nuclear signal, read-out: BRM IF Degradation IC50; for BRM IF Degradation Sinf (%): normalized to a known degrader control. On the procedure:
as §1, §2, §3

T1 sequence (P51532 whole entry): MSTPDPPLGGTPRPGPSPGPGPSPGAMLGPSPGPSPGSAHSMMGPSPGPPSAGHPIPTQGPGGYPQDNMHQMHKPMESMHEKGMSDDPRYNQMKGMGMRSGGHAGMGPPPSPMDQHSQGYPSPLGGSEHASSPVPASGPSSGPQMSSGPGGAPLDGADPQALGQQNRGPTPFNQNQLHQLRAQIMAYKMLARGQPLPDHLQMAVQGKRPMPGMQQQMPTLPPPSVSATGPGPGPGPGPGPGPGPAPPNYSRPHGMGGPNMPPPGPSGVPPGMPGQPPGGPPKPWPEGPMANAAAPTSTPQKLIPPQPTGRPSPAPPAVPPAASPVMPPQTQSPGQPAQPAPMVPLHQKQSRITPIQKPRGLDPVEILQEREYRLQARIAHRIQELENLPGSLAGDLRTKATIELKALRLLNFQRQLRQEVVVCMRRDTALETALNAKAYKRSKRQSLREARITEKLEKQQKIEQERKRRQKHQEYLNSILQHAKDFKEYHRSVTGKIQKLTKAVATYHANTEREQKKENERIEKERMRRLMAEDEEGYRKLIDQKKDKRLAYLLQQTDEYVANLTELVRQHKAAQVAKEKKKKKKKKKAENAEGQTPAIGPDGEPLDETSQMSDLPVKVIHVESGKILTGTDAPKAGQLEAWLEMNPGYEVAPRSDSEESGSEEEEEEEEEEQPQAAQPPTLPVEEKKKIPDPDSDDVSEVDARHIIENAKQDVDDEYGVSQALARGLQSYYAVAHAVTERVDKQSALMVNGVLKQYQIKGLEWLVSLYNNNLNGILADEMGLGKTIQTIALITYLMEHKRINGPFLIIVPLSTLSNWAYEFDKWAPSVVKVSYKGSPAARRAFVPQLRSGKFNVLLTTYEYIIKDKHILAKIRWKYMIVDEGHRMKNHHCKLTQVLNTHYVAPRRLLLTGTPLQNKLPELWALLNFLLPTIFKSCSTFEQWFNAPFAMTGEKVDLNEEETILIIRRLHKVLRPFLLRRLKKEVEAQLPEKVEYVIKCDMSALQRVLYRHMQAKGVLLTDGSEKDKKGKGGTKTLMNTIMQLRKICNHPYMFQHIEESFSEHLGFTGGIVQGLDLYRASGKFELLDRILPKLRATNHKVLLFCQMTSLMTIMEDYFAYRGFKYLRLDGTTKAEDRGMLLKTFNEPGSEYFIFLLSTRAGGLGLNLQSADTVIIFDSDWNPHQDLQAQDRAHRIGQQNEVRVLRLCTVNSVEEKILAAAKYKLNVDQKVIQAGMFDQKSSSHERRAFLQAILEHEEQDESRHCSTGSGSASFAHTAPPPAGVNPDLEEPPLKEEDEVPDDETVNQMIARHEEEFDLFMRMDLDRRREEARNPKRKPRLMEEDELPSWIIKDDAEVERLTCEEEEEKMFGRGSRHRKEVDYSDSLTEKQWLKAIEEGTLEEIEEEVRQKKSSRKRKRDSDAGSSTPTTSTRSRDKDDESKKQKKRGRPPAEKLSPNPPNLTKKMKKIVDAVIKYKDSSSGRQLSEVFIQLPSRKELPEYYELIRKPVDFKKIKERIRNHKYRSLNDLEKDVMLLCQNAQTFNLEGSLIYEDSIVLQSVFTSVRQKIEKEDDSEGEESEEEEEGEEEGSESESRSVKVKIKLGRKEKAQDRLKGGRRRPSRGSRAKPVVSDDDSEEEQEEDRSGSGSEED
Chain of BRM (P51531 whole entry): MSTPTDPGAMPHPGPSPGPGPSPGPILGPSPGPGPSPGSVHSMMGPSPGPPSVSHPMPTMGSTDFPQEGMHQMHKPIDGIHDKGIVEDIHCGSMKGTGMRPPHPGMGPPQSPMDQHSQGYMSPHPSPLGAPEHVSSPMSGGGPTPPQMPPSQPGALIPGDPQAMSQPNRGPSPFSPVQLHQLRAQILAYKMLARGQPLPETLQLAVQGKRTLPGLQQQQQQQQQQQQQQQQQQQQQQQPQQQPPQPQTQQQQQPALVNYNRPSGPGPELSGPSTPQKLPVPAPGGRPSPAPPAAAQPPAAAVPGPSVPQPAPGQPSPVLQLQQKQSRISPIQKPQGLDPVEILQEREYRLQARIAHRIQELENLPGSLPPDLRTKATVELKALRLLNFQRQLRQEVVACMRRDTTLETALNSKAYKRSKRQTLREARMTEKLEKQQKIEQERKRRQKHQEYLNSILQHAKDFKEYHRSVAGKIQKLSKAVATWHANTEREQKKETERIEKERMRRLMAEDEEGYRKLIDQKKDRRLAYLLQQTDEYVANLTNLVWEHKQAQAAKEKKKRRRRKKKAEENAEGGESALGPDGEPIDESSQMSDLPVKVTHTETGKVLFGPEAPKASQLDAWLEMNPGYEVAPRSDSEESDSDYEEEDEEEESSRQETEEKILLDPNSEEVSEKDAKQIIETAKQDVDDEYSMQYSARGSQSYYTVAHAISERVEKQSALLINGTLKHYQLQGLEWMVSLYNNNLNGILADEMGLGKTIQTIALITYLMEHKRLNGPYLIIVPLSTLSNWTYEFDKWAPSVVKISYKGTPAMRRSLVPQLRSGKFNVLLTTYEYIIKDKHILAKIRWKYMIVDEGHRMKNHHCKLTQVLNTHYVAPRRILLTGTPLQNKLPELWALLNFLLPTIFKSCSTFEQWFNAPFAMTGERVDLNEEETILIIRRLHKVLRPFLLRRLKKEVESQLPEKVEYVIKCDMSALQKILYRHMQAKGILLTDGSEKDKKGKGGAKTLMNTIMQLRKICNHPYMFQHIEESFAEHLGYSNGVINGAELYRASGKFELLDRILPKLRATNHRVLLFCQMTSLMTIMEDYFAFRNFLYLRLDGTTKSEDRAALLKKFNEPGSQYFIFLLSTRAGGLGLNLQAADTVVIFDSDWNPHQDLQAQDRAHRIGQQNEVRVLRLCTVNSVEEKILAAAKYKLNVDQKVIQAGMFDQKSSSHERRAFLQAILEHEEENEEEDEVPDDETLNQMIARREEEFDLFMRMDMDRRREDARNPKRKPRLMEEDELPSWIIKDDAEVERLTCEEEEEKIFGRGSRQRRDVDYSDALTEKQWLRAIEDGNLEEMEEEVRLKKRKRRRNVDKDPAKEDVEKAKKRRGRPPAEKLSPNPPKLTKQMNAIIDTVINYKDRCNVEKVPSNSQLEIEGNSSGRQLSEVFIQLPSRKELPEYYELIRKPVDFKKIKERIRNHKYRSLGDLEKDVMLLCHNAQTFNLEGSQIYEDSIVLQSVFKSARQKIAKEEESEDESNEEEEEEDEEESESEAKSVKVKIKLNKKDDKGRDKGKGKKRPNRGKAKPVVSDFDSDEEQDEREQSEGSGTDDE

Regarding `Oc1ccccc1-c1cc2c(nn1)NC[C@H]1CN(c3ccnc(C#CCN4CCCCCC4)c3)CCN21` (single isomer, unassigned) [Compound 252], in assay [1], the DC50 was less than 10 nM and the Dmax lay in the range of 71 to 120%. In assay [2], the DC50 is less than 10 nM and the “BRM IF Degradation Sinf (%)” value is given as “F (F indicates −71%-−120%)”.

As to `Oc1ccccc1-c1cc2c(nn1)NC[C@@H]1CN(c3ccnc(C#CCN4CCCCCC4)c3)CCN21` (single isomer, unassigned) [Compound 253], in assay [1], the DC50 was less than 10 nM and the Dmax fell in the range of 71 to 120%. In addition, in assay [2], the DC50 is less than 10 nM and the “BRM IF Degradation Sinf (%)” value is “F (F indicates −71%-−120%)”.

As to `Nc1nnc(-c2ccccc2O)cc1N1CC2CCC(C1)N2c1ccnc(C#CCNC(=O)C2CCNCC2)c1` [Compound 35, N-[3-[4-[3-[3-amino-6-(2-hydroxyphenyl)pyridazin-4-yl]-3,8-diazabicyclo[3.2.1]octan-8-yl]-2-pyridyl]prop-2-ynyl]piperidine-4-carboxamide], the DC50 in assay [1] was more than 100 nM. In assay [2], the DC50 was more than 100 nM and the “BRM IF Degradation Sinf (%)” value is on record as “E (E indicates −30%-−70%)”.

For the molecule `CC(C)(N)C#Cc1cc(N2C3CCC2CN(c2cc(-c4ccccc4O)nnc2N)C3)ccn1` [Compound 36, 2-[6-amino-5-[8-[2-(3-amino-3-methyl-but-1-ynyl)-4-pyridyl]-3,8-diazabicyclo[3.2.1]octan-3-yl]pyridazin-3-yl]phenol], in assay [1], the DC50 was 10 to 100 nM and the Dmax lay in the range of 30 to 70%. In assay [2], the DC50 lay in the range of 10 to 100 nM and the “BRM IF Degradation Sinf (%)” value is given as “E (E indicates −30%-−70%)”.

Take `COC1CCCN(CC#Cc2cc(N3C4CCC3CN(c3cc(-c5ccccc5O)nnc3N)C4)ccn2)C1` (stereo not shown) [Compound 37, 2-[6-amino-5-[8-[2-[3-(3-methoxy-1-piperidyl)prop-1-ynyl]-4-pyridyl]-3,8-diazabicyclo[3.2.1]octan-3-yl]pyridazin-3-yl]phenol]: in assay [1], the DC50 was less than 10 nM and the Dmax is 30 to 70%. Moreover, in assay [2], the DC50 lay in the range of 10 to 100 nM and the “BRM IF Degradation Sinf (%)” value is on record as “E (E indicates −30%-−70%)”.

Take `Nc1nnc(-c2ccccc2O)cc1N1CC2CCC(C1)N2c1ccnc(C#CCN2CCN(C3CC3)CC2)c1` [Compound 38, 2-[6-amino-5-[8-[2-[3-(4-cyclopropylpiperazin-1-yl)prop-1-ynyl]-4-pyridyl]-3,8-diazabicyclo[3.2.1]octan-3-yl]pyridazin-3-yl]phenol]: the DC50 in assay [1] was more than 100 nM. Besides, in assay [2], the DC50 lay in the range of 10 to 100 nM and the “BRM IF Degradation Sinf (%)” value is reported as “E (E indicates −30%-−70%)”.

On to `Nc1nnc(-c2ccccc2O)cc1N1CC2CCC(C1)N2c1ccnc(C#CCN2CC3CCCCC3C2)c1` (stereo not shown) [Compound 39, 2-[5-[8-[2-[3-(1,3,3a,4,5,6,7,7a-octahydroisoindol-2-yl)prop-1-ynyl]-4-pyridyl]-3,8-diazabicyclo[3.2.1]octan-3-yl]-6-amino-pyridazin-3-yl]phenol], for which, in assay [1], the DC50 is less than 10 nM and the Dmax lay in the range of 30 to 70%. For the same molecule, in assay [2], the DC50 was less than 10 nM and the “BRM IF Degradation Sinf (%)” value is given as “F (F indicates −71%-−120%)”.

With `CC1CN(CC#Cc2cc(N3C4CCC3CN(c3cc(-c5ccccc5O)nnc3N)C4)ccn2)CCN1` (stereo not shown) [Compound 40, 2-[6-amino-5-[8-[2-[3-(3-methylpiperazin-1-yl)prop-1-ynyl]-4-pyridyl]-3,8-diazabicyclo[3.2.1]octan-3-yl]pyridazin-3-yl]phenol], in assay [1], the DC50 is more than 100 nM. Moreover, in assay [2], the DC50 is more than 100 nM and the “BRM IF Degradation Sinf (%)” value was “E (E indicates −30%-−70%)”.

For the molecule `COCC1CCCCN1CC#Cc1cc(N2C3CCC2CN(c2cc(-c4ccccc4O)nnc2N)C3)ccn1` (stereo not shown) [Compound 41, 2-[6-amino-5-[8-[2-[3-[2-(methoxymethyl)-1-piperidyl]prop-1-ynyl]-4-pyridyl]-3,8-diazabicyclo[3.2.1]octan-3-yl]pyridazin-3-yl]phenol], in assay [1], the DC50 was in the range of 10 to 100 nM and the Dmax lay within 30 to 70%. In assay [2], the DC50 was in the range of 10 to 100 nM and the “BRM IF Degradation Sinf (%)” value is on record as “E (E indicates −30%-−70%)”.

As for `CC1CN(CC#Cc2cc(N3C4CCC3CN(c3cc(-c5ccccc5O)nnc3N)C4)ccn2)CCCO1` (stereo not shown) [Compound 42, 2-[6-amino-5-[8-[2-[3-(2-methyl-1,4-oxazepan-4-yl)prop-1-ynyl]-4-pyridyl]-3,8-diazabicyclo[3.2.1]octan-3-yl]pyridazin-3-yl]phenol], in assay [1], the DC50 was in the range of 10 to 100 nM and the Dmax was 30 to 70%. In assay [2], the DC50 is 10 to 100 nM and the “BRM IF Degradation Sinf (%)” value is reported as “E (E indicates −30%-−70%)”.

As for `Nc1nnc(-c2ccccc2O)cc1N1CC2CCC(C1)N2c1ccnc(C#CCCN2CCCCC2)c1` [Compound 182, 2-[6-amino-5-[8-[2-[4-(1-piperidyl)but-1-ynyl]-4-pyridyl]-3,8-diazabicyclo[3.2.1]octan-3-yl]pyridazin-3-yl]phenol], in assay [2], the DC50 was more than 100 nM and the “BRM IF Degradation Sinf (%)” value is recorded as “F (F indicates −71%-−120%)”.

Regarding `CC1CCN(CC#Cc2cc(N3C4CCC3CN(c3cc(-c5ccccc5O)nnc3N)C4)ccn2)CCC1=O` (stereo not shown) [Compound 198, 1-[3-[4-[3-[3-amino-6-(2-hydroxyphenyl)pyridazin-4-yl]-3,8-diazabicyclo[3.2.1]octan-8-yl]-2-pyridyl]prop-2-ynyl]-5-methyl-azepan-4-one], in assay [2], the DC50 was less than 10 nM and the “BRM IF Degradation Sinf (%)” value is on record as “E (E indicates −30%-−70%)”.

With `Nc1nnc(-c2ccccc2O)cc1N1CC2CCC(C1)N2c1ccnc(C#CCN2CCCN(c3ccncc3)CC2)c1` [Compound 204, 2-[6-amino-5-[8-[2-[3-[4-(4-pyridyl)-1,4-diazepan-1-yl]prop-1-ynyl]-4-pyridyl]-3,8-diazabicyclo[3.2.1]octan-3-yl]pyridazin-3-yl]phenol], in assay [2], the DC50 was in the range of 10 to 100 nM and the “BRM IF Degradation Sinf (%)” value was “E (E indicates −30%-−70%)”.

For `CC1(C)CC(O)CCN(CC#Cc2cc(N3C4CCC3CN(c3cc(-c5ccccc5O)nnc3N)C4)ccn2)C1` (stereo not shown) [Compound 213, 1-[3-[4-[3-[3-amino-6-(2-hydroxyphenyl)pyridazin-4-yl]-3,8-diazabicyclo[3.2.1]octan-8-yl]-dimethyl-azepan-4-ol 2-pyridyl]prop-2-ynyl]-6,6-], in assay [2], the DC50 is 10 to 100 nM and the “BRM IF Degradation Sinf (%)” value is given as “E (E indicates −30%-−70%)”.

Regarding `Nc1nnc(-c2ccccc2O)cc1N1CC2CCC(C1)N2c1ccnc(C#CCN2CC3C4CCC(C4)C32)c1` (stereo not shown) [Compound 220, 2-[6-amino-5-[8-[2-[3-(3-azatricyclo[4.2.1.02,5]nonan-3-yl)prop-1-ynyl]-4-pyridyl]-3,8-diazabicyclo[3.2.1]octan-3-yl]pyridazin-3-yl]phenol], in assay [2], the DC50 is more than 100 nM and the “BRM IF Degradation Sinf (%)” value was “E (E indicates −30%-−70%)”.

In the case of `Nc1nnc(-c2ccccc2O)cc1N1CC2CCC(C1)N2c1ccnc(/C=C/CN2CCCCCC2)c1` [Compound 248, (E)-2-(6-amino-5-(8-(2-(3-(azepan-1-yl)prop-1-en-1-yl)pyridin-4-yl)-3,8-diazabicyclo[3.2.1]octan-3-yl)pyridazin-3-yl)phenol], in assay [2], the DC50 was less than 10 nM and the “BRM IF Degradation Sinf (%)” value was “E (E indicates −30%-−70%)”.
